# Test results reported in patent US20220249413A1, “SWELL 1 MODULATORS FOR TREATMENT OF NON-ALCOHOLIC FATTY LIVER DISEASE, IMMUNE DEFICIENCIES, MALE INFERTILITY AND VASCULAR DISEASES” (priority 2019, published 2022).
# System: SWELL1
# Assay: SWELL1 expression in adipose tissue of treated T2D mice (Western blot)
# Assay type: in vivo, mouse
# Settings: 5 mg/kg i.p.
# Description: Patients Human islets and adipocytes were obtained and cultured as described previously (Zhang et al., Nat Cell Biol, 19, 504-517, 2017; Kang et al., Nature Communications, 9, 367, 2018). The Patients involved in the study were anonymous and information such as gender, age, HbA1c, glucose levels and BMI only were available to the research team. The study was approved and carried out as per the guidelines of the University of Iowa Institutional Review Board (IRB). Animals All experimental procedures involving mice were approved by the Institutional Animal Care and Use Committee of the University of Iowa and Washington University at St. Louis. All C57BL/6 mice involved in study were purchased from Charles River Labs. Both KK.Cg-Ay/J (KKA^y) and KK.Cg-Aa/J (KKA^a) mice involved in study were gender and age-matched mice obtained from Jackson Labs (Stock No: 002468) and bred up for experiments. The mice were fed ad libitum with either regular chow (RC) or high-fat diet (Research Diets, Inc., 60 kcal % fat) with free access to water and housed in a light-, temperature- and humidity-controlled room. For high-fat diet (HFD) studies, only male mice were used and were started on HFD regimen at the age of 6-9 weeks. For all experiments involving KKA^y and KKA^a mice, both males and females were used at approximately 50/50 ratio. […] Based on GFP fluorescence, viral transduction efficiency was ˜90%. […]
compound,measurement,setting,value
"CCCCC1(C2CCCC2)Cc2cc(OCCCC(=O)O)c(Cl)c(Cl)c2C1=O (centres unmarked) [Smod1, 4-[(2-Butyl-6,7-dichloro-2-cyclopentyl-2,3-dihydro-1-oxo-1H-inden-5-yl)oxy]butanoic acid]",augmentation of SWELL1 expression in adipose tissue,HFD-fed T2D mice,2.3 fold
same,adipose SWELL1 expression,KKA^y mice,levels comparable to both non-T2D C57/B6 mice and to the parental KKA^a parental strain
